Some test systems named below: COLO 205; EKVX; HCC 2998; HCT-15; HOP-92; HT-29; KM-20L2; KM12; Malme-3M; NCI-H226; NCI-H23; OVCAR-3; OVCAR-4; OVCAR-5; SF-268; SF-539; SNB-19; SR; UACC-257; MOLT-4.
What all share (test): growth of human tumour cells (NCI), 48 h

Here are results for 8 molecules from ChEMBL document CHEMBL1201862, “PubChem BioAssay data set” (2004).

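Assay format: 96-well plates, 48-hour exposure. Abbreviation: GI50, concentration required for 50% inhibition of growth.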 Activity calls are given as the source filed them. Cut-off read from the data, not from the text of the source: active = GI50 up to about 1.1 µM and inactive = higher.

For `C[N+]1(CCNP(=S)(NCC[N+]2(C)Cc3c(ccc4c3OCO4)C3C2c2cc4c(cc2C[C@@H]3O)OCO4)NCC[N+]2(C)Cc3c(ccc4c3OCO4)C3C2c2cc4c(cc2C[C@@H]3O)OCO4)Cc2c(ccc3c2OCO3)C2C1c1cc3c(cc1C[C@H]2O)OCO3` (stereo not given in full), the GI50 is < 0.00191 µM (active) with COLO 205; < 0.00191 µM (active) in the experiment on EKVX; < 0.00191 µM (active) with HCC 2998; below 0.00191 µM in the experiment with HCT-15; < 0.00191 µM (active) in the experiment on HOP-92; < 0.00191 µM (active) in the experiment on HT-29. In addition, the GI50 in the experiment with KM-20L2 was < 0.00191 µM (active); in the experiment with KM12, < 0.00191 µM (active); in the experiment with Malme-3M, < 0.00191 µM (active); in the experiment with NCI-H226 it was 2.42 µM (inactive); with NCI-H23, < 0.00191 µM (active); in the experiment on OVCAR-3 it was < 0.00191 µM (active). In addition, the GI50 with OVCAR-4, in the experiment with OVCAR-5, in the experiment with SF-268, in the experiment on SF-539, in the experiment with SNB-19 and with SR was < 0.00191 µM (active) throughout. The GI50 with UACC-257 was < 0.00191 µM (active).
`Oc1c(C(Nc2cccc3cccnc23)c2ccccc2)ccc2cccnc12` (stereo not given): the GI50 is 6.25 µM (inactive) in the experiment on COLO 205; 4.84 µM (inactive) with EKVX; 14.2 µM (inactive) with HCC 2998; 3.77 µM (inactive) with KM-20L2; 7.41 µM (inactive) in the experiment with KM12; 1.9 µM (inactive) with MOLT-4. The GI50 was 3.49 µM (inactive) with Malme-3M; 1.73 µM (inactive) with NCI-H226; 5.43 µM (inactive) in the experiment on NCI-H23; 5.77 µM (inactive) with OVCAR-3; 17.5 µM (inactive) with OVCAR-4; 12.9 µM (inactive) in the experiment with OVCAR-5. Further, the GI50 in the experiment with SF-268 was 4.21 µM (inactive); in the experiment on SF-539, 3.65 µM (inactive); with SNB-19, 4.69 µM (inactive); with SR, 2.61 µM (inactive); in the experiment on UACC-257, 4.38 µM (inactive).
Take `COc1ccc(CNc2nc3ccc(C(F)(F)F)cc3nc2-c2ccccc2)cc1OC`: the GI50 with COLO 205 is 6.41 µM (inactive); in the experiment with EKVX it was > 100 µM (inactive); with HCC 2998 it was 13.9 µM (inactive); in the experiment with HCT-15, 25.1 µM; in the experiment with HOP-92, 2.9 µM (inactive); with HT-29, 61.5 µM (inactive). Moreover, the GI50 was 47.6 µM (inactive) with KM-20L2; 6.71 µM (inactive) with MOLT-4; 73.5 µM (inactive) in the experiment on Malme-3M; > 100 µM (inactive) with NCI-H226; 78.7 µM (inactive) in the experiment with NCI-H23; 60.8 µM (inactive) in the experiment with OVCAR-3. The GI50 was > 100 µM (inactive) in the experiment with OVCAR-5; 63.2 µM (inactive) in the experiment with SF-268; 54.3 µM (inactive) in the experiment on SF-539; > 100 µM (inactive) in the experiment with SNB-19; 6.64 µM (inactive) in the experiment on SR; 25.2 µM (inactive) with UACC-257.
As for `COc1ccc2c(c1)Cc1c-2[nH]c2cc3c(cc2c1=O)OCO3`, the GI50 is 12 µM (inactive) in the experiment on COLO 205; 23.8 µM (inactive) in the experiment with EKVX; 11.6 µM (inactive) in the experiment with HCC 2998; 9.91 µM in the experiment on HCT-15; 17.7 µM (inactive) with HOP-92; 6.44 µM (inactive) with HT-29. Moreover, the GI50 in the experiment on KM-20L2 is 14.7 µM (inactive); in the experiment on KM12, 9.48 µM (inactive); in the experiment with MOLT-4, 8.81 µM (inactive); with Malme-3M, 13.7 µM (inactive); in the experiment on NCI-H226, 29.9 µM (inactive); in the experiment with NCI-H23, 16.3 µM (inactive). Moreover, the GI50 in the experiment on OVCAR-3 is 16.7 µM (inactive); in the experiment with OVCAR-4, 25.4 µM (inactive); with SF-268, 18.7 µM (inactive); in the experiment on SF-539, 14.3 µM (inactive); in the experiment with SNB-19, 23 µM (inactive).
As to `CCCCCCCCCCCCCCCCCC(CCCCCCCCCCCCCCCCC)OP(=O)(O)O`, the GI50 in the experiment with COLO 205 was > 100 µM (inactive); in the experiment with EKVX it was > 100 µM (inactive); in the experiment on HCC 2998 it was > 100 µM (inactive); in the experiment with HCT-15, above 100 µM; in the experiment on HOP-92 it was > 100 µM (inactive); with HT-29, > 100 µM (inactive). Besides, the GI50 in the experiment with KM-20L2, in the experiment on KM12, with MOLT-4, with Malme-3M, with NCI-H226 and in the experiment on NCI-H23 was > 100 µM (inactive) in each case. In addition, the GI50 with OVCAR-3 is > 100 µM (inactive); with OVCAR-4, > 100 µM (inactive); with OVCAR-5, > 100 µM (inactive); in the experiment on SF-268, > 100 µM (inactive); in the experiment with SNB-19, > 100 µM (inactive); with SR, 42.9 µM (inactive). In addition, in the experiment with UACC-257, the GI50 was > 100 µM (inactive).
In the case of `COC(=O)c1cc2ccccc2c2nc3ccccc3c(Cl)c12`, the GI50 was > 100 µM (inactive) in the experiment on COLO 205; > 100 µM (inactive) in the experiment on EKVX; > 100 µM (inactive) in the experiment with HCC 2998; above 100 µM with HCT-15; > 100 µM (inactive) with HOP-92; > 100 µM (inactive) in the experiment with HT-29. Moreover, the GI50 with KM-20L2 is 11.4 µM (inactive); with KM12, > 100 µM (inactive); in the experiment with MOLT-4 it was > 100 µM (inactive); in the experiment on Malme-3M, > 100 µM (inactive); with NCI-H23 it was > 100 µM (inactive); in the experiment with OVCAR-3, > 100 µM (inactive). Moreover, the GI50 in the experiment on OVCAR-4 was > 100 µM (inactive); in the experiment on SF-268, > 100 µM (inactive); with SF-539 it was 16.6 µM (inactive); with SNB-19 it was 37.4 µM (inactive); in the experiment with SR it was 51.8 µM (inactive); in the experiment on UACC-257 it was > 100 µM (inactive).
Take `O=C1C(Cl)C(c2cccc([N+](=O)[O-])c2)N1n1cnc2ccccc2c1=O` (stereo not given): the GI50 in the experiment on COLO 205 is > 100 µM (inactive); with EKVX it was > 100 µM (inactive); in the experiment with HCC 2998, > 100 µM (inactive); in the experiment on HCT-15, above 100 µM; with HT-29, > 100 µM (inactive); in the experiment on KM-20L2 it was 85.7 µM (inactive). In addition, the GI50 with KM12 is > 100 µM (inactive); in the experiment with MOLT-4 it was 35.1 µM (inactive); in the experiment on Malme-3M, > 100 µM (inactive); in the experiment on NCI-H226, > 100 µM (inactive); with NCI-H23, > 100 µM (inactive); with OVCAR-3 it was 78.7 µM (inactive). Further, the GI50 was 54.6 µM (inactive) with OVCAR-4; 58.5 µM (inactive) with OVCAR-5; > 100 µM (inactive) with SF-268; > 100 µM (inactive) with SNB-19; 19.1 µM (inactive) in the experiment on SR; 55.2 µM (inactive) in the experiment with UACC-257.
With `CC(N)Cc1cccc(C(F)(F)F)c1` (stereo not given), the GI50 in the experiment with COLO 205 was > 100 µM (inactive); in the experiment with EKVX, > 100 µM (inactive); in the experiment on HCC 2998 it was > 100 µM (inactive); with HCT-15 it was above 100 µM; in the experiment with HOP-92, > 100 µM (inactive); with HT-29 it was > 100 µM (inactive). For the same molecule, the GI50 in the experiment on KM-20L2, with KM12, in the experiment with Malme-3M, in the experiment on NCI-H226, in the experiment with NCI-H23 and in the experiment with OVCAR-3 was > 100 µM (inactive) throughout. Further, the GI50 in the experiment on OVCAR-4, in the experiment with OVCAR-5, in the experiment on SF-268, with SF-539, with SNB-19 and in the experiment with SR was > 100 µM (inactive) throughout. Besides, the GI50 in the experiment with UACC-257 is > 100 µM (inactive).
